We go through two compounds from ChEMBL document CHEMBL5512638, “Novel pyrrole based CB2 agonists: New insights on CB2 receptor role in regulating neurotransmitters' tone” (Eur J Med Chem, 2024).

Data set [1] relates to Mus musculus. Put plainly: Cognitive enhancing activity in scopolamine induced amnesia male C57/BL6J mouse model assessed as novel arm exploration time at 1 mg/kg, ip preadministered with compound for 10 mins followed by scopolamine administration for 30 mins and measured after 30 mins by Y-maze test (reference value: 9.28 +/- 1.03 sec). To be noted: time 70 min, 1.167 h. Format: functional.

The subject of data set [2] is Mus musculus. Briefly: Cognitive enhancing activity in scopolamine induced amnesia male C57/BL6J mouse model assessed as latency time to enter novel arm at 1 mg/kg, ip preadministered with compound for 10 mins followed by scopolamine administration for 30 mins and measured after 30 mins by Y-maze test (reference value: 21.93 +/- 0.78 sec). Format: functional. Particulars: time 70 min, 1.167 h.

Data set [3] is described as follows: Chemical stability of compound in phosphate buffer at pH 7.4 assessed as compound remaining at 5 uM measured after 1.5 hrs by UHPLC-MS analysis. Format: physicochemical. Particulars: read-out: Stability.
Data set [4] addresses T1, Cannabinoid receptor 2 (Homo sapiens, UniProt P34972). Put plainly: Partial agonist activity at human CB2 receptor expressed in CHO-K1 cells assessed as reduction in NKH-477 induced cAMP production by chemiluminescence based cAMP hunter assay. Format: functional, cell-based.
Data set [5] can be described thus: Chemical stability of compound in phosphate buffer at pH 7.4 assessed as compound remaining at 5 uM measured after 0.5 hrs by UHPLC-MS analysis. The format is physicochemical. Particulars: read-out: Stability.
Data set [6] deals with T1, Cannabinoid receptor 2. Briefly: Displacement of [3H]CP55940 from recombinant human CB2 receptor expressed in HEK293 cell membrane incubated for 90 mins by competition binding assay. Format: cell membranes. To be noted: read-out: IC50. For orientation: Displacement assays read how much labelled ligand stays bound in the presence of the test substance.
A short description of data set [7]: Chemical stability of compound in phosphate buffer at pH 7.4 assessed as compound remaining at 5 uM measured after 1 hrs by UHPLC-MS analysis. To be noted: read-out: Stability. The format is physicochemical.
In data set [8] the target is T1, Cannabinoid receptor 2. Briefly: Partial agonist activity at human CB2 receptor expressed in CHO-K1 cells assessed as reduction in NKH-477 induced cAMP production by measuring maximal efficacy by chemiluminescence based cAMP hunter assay relative to control. The format is functional, cell-based. To be noted: filed as partial agonist.
The target in data set [9] is T2, Cannabinoid receptor 1 (Homo sapiens, UniProt P21554). Briefly: Displacement of [3H]CP55940 from recombinant human CB1 receptor expressed in HEK293 cell membrane incubated for 90 mins by competition binding assay. Particulars: read-out: IC50. Format: cell membranes.
Data set [10] addresses T1, Cannabinoid receptor 2. Put plainly: Displacement of [3H]CP55940 from recombinant human CB2 receptor expressed in HEK293 cell membrane assessed as inhibition constant incubated for 90 mins by competition binding assay. Format: cell membranes. Particulars: read-out: Ki.
The target of data set [11] is T2, Cannabinoid receptor 1. Put plainly: Displacement of [3H]CP55940 from recombinant human CB1 receptor expressed in HEK293 cell membrane assessed as inhibition constant incubated for 90 mins by competition binding assay. Format: cell membranes. Particulars: read-out: Ki.
A short description of data set [12]: Chemical stability of compound in phosphate buffer at pH 7.4 assessed as compound remaining at 5 uM measured after 2 hrs by UHPLC-MS analysis. Particulars: read-out: Stability. Format: physicochemical.

A value given as a limit tells only on which side of the number the result lay.

T1 sequence (P34972 whole entry): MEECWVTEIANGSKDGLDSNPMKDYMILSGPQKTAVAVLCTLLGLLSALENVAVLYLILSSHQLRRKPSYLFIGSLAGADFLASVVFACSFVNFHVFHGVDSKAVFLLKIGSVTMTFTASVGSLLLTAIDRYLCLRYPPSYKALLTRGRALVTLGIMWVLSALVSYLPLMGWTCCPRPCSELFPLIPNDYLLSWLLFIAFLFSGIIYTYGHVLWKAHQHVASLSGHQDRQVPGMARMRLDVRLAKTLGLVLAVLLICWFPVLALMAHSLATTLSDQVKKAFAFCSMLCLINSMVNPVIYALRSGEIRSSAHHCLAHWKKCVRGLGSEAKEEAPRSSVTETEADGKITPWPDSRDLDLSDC
T2 sequence (P21554 whole entry): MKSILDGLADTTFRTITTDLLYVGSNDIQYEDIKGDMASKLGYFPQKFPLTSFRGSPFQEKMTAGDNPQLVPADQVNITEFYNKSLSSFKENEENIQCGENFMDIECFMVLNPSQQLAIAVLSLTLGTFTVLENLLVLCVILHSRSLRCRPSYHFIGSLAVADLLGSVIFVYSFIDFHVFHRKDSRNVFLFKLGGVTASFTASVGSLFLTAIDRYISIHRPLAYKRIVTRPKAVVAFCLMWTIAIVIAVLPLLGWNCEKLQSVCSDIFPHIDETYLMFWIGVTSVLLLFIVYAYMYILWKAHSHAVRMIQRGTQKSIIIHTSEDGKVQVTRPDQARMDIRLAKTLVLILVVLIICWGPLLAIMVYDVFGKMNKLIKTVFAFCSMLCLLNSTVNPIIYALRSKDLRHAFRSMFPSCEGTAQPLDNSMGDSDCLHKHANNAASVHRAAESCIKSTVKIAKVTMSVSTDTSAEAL

`Cc1c(C(=O)NN2CCCCC2)nn(-c2ccc(Cl)cc2Cl)c1-c1ccc(I)cc1`: the Time in [1] turned out to be 28.6 s; in data set [2] it was 11.01 s.

In the case of `O=C(Nc1cccc2ccccc12)c1cccn1Cc1ccc(F)cc1`, in [3], the remaining at 1.5 h, 5 µM stood at 103%. Moreover, the concentration giving a half-maximal response (EC50) in data set [4] was determined as 6.11 µM. Further, in data set [5], the remaining at 0.5 h, 5 µM stood at 101%. For the same compound, the half-maximal inhibitory concentration (IC50) in [6] is 0.39 µM; in data set [9] it was above 10 µM. The remaining at 1 h, 5 µM in [7] is 101%. Besides, in data set [8], the Emax worked out at 43.1%. The Ki was 0.06 µM in [10] and above 10 µM in data set [11]. Further, in data set [12], the remaining at 2 h, 5 µM is 99.2%.

As a reminder, the EC50 is the concentration that produces a half-maximal response. Broadly, the IC50 is the concentration needed to halve the response being measured. The term Emax denotes the size of the effect at its maximum, as opposed to the concentration needed. By Ki is commonly meant the equilibrium dissociation constant of an inhibitor or competing ligand from its target.
